Assay results from patent US20230255972A1, “PYRIMIDINE COMPOUND-CONTAINING COMBINATION TO BE USED IN TUMOR TREATMENT” (TAIHO PHARMACEUTICAL CO., LTD., priority 2020, published 2023).
Read-outs that look alike come from different tables or passages of the source.

Key:
[1] = test system: NCI-N87-Luc; experiment: Antitumor effect (in vivo) on direct brain transplantation models of NCI-N87-luc; parameters: species or system nude mouse; settings: 25 mg/kg/day po once a day, Days 1-21
Description: Test Example 11 Antitumor Effect Confirmation Test (In Vivo) on Direct Brain Transplantation Models, into which Luciferase Gene-Introduced HER2 Expressing Cell Line (NCI-N87-luc) is Directly Transplanted
In order to confirm the antitumor effects of a test compound on direct brain transplantation models, NCI-N87-Luc, which was obtained by introducing a Luciferase gene into NCI-N87 that was a human stomach cancer tumor cell line purchased from American Type Culture Collection, was used.
The NCI-N87-Luc cells were re-suspended in PBS in a concentration of 6.25×10^7 cells/mL.
A microdrill was used to drill a hole in the skull, and then, using a needle, a manipulator, and a syringe pump, 4 μL of the cell suspension was transplanted into the brain at a rate of 0.8 μL/min.
As a reference of the amount of brain tumor, approximately 3 weeks after the transplantation, Total Flux (Photon/sec) was measured in all of the survival cases, using IVIS (PerkinElmer, Inc., model: Lumina II). Based on the obtained results, 6 animals were assigned to each group, using the grouping program of MiSTAT (Ver. 2.00).
The test compound was orally administered to the mice once a day, every day, for 21 days from the following day of the grouping (Days 1-21). […]
The value obtained by logarithmic transformation (Log 10) of the total flux on Day 22 in each group was analyzed by a Dunnett's test or a Student-t test. […]

[2] = test system: SK-BR-3 cells; experiment: Growth inhibitory activity against HER2 expressing cell line SK-BR-3; assay type: cell-based; settings: Homo sapiens, SK-BR-3, 72 h; 3 days, CellTiter-Glo 2.0
Protocol: Test Example 3 Measurement of Growth Inhibitory Activity Against HER2 Expressing Cell Line
SK-BR-3 cells as a HER2 overexpressing human breast cancer cell line were suspended in a McCoy's 5a medium (manufactured by Life Technologies) supplemented with 10% fetal bovine serum. The cell suspension was seeded in each well of a 384-well flat-bottom microplate, and was then cultured in a 5% carbon dioxide gas-containing culture vessel at 37° C. for 1 day. Thereafter, the compound of the present invention was dissolved in DMSO, and the pyrimidine compound was diluted to 500 times the final concentration in DMSO. The compound in the DMSO solution was diluted with DMSO solution or the medium used in the suspension of the cells, and the obtained solution was then added to each well of the culture plate so that the final concentration of DMSO was 0.2%. The obtained mixture was further cultured in the 5% carbon dioxide gas-containing culture vessel at 37° C. for 3 days. After completion of the culture for 3 days in the presence of the compound, the cells were counted using CellTiter-Glo 2.0 (manufactured by Promega), and the growth inhibition percentage was then calculated according to the following equation.
Growth inhibitory percentage (%)=(C−T)/(C)×100 […]

[3] = target: T1, EGFR (Homo sapiens, UniProt P00533); experiment: Phosphorylation activity inhibitory effect (in vitro) on wild-type EGFR; assay type: biochemical
T1 construct: purchased Carna Biosciences, Inc
T1 sequence (P00533 25-1210): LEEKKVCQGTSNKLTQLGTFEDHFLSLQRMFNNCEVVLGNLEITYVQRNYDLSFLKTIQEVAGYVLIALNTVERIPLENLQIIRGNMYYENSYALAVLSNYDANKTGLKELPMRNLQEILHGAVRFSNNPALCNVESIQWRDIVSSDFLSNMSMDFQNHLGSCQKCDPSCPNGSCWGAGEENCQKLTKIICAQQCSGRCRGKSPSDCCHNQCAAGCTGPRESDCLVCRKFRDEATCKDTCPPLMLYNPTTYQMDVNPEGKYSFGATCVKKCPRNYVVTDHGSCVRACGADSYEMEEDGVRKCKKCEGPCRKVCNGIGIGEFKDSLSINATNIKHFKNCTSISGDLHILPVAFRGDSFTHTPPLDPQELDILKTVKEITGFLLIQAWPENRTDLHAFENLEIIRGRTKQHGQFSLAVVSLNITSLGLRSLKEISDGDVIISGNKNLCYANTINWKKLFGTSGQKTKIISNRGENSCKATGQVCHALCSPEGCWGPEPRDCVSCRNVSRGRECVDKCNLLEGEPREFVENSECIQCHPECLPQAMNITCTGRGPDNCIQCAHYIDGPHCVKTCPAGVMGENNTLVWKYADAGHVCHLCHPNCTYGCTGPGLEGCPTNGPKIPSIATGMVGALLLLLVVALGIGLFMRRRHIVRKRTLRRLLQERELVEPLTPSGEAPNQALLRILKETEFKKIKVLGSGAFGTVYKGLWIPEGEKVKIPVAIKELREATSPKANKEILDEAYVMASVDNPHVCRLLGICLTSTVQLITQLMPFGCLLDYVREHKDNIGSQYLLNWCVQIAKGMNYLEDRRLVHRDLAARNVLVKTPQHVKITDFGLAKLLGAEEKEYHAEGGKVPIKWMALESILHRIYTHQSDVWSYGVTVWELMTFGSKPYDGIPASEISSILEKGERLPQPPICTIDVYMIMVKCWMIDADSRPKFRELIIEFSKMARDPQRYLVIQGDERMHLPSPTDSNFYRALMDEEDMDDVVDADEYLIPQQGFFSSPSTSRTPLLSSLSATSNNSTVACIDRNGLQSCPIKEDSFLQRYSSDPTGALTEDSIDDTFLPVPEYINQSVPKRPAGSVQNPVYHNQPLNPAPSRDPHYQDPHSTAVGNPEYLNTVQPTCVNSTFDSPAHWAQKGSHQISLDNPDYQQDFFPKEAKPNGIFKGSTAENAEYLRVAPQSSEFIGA
Protocol: (§1) Test Example 6 Measurement of Phosphorylation Activity Inhibitory Effect (In Vitro) on Wild-Type and Mutant EGFR
(§2) The measurement of the in vitro inhibitory activity of a compound against wild-type and mutant EGFR was outsourced to Carna Biosciences, Inc. (Kinase Profiling Book, https://www.carnabio.com/japanese/product/search.cgi?mode=profiling).
(§3) Specifically, first, the pyrimidine compound of the present invention was diluted stepwise with dimethyl sulfoxide (DMSO). […] To the reaction solution, Termination Buffer was added, so as to terminate the kinase reaction. Finally, using LabChip™ EZ Reader II (PerkinElmer), an unphosphorylated substrate peptide (S) and a phosphorylated peptide (P) were separated and detected according to microchannel capillary electrophoresis.
(§4) As the pyrimidine compound of the present invention, the compound of Example 11 (Example compound 11) was used.

[4] = target: T2, EGFR [d746-750] (Homo sapiens, UniProt P00533, DEL746-750); experiment: Phosphorylation activity inhibitory effect (in vitro) on mutant EGFR d746-750; assay type: biochemical
T2 construct: purchased Carna Biosciences, Inc
T2 sequence (P00533 with tags, fused parts or gaps DEL746-750): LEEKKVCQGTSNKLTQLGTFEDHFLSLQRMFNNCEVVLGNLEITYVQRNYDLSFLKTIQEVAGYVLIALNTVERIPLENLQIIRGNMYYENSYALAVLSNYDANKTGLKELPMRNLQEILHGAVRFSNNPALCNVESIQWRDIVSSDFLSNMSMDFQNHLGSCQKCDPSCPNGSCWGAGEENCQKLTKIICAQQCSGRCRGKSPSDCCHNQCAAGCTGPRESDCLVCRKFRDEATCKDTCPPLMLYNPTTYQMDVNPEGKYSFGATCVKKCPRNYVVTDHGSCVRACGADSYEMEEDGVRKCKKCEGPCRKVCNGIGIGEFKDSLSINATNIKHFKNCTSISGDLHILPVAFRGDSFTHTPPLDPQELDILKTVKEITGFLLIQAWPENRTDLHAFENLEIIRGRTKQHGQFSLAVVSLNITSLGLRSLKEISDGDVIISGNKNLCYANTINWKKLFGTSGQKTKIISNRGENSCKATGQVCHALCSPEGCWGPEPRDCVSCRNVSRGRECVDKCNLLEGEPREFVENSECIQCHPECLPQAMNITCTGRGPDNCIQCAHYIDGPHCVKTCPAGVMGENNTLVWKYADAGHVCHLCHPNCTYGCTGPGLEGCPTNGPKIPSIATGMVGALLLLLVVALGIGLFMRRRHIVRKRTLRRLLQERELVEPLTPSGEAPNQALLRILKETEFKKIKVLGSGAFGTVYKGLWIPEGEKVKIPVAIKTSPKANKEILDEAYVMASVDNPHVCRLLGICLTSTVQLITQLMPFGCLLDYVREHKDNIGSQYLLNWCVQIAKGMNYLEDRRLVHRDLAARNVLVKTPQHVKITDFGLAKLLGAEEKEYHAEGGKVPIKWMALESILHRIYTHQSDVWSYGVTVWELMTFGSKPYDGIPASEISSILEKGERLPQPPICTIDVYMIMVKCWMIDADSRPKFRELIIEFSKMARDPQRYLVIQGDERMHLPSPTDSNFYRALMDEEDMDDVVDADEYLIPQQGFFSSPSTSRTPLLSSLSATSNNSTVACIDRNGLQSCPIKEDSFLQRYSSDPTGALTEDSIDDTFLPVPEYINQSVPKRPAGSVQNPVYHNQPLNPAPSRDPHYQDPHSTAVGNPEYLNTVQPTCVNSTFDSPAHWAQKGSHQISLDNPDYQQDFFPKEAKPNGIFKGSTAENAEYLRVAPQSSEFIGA
Protocol: as §1, §2, §3, §4

[5] = target: T3, EGFR [d746-750/T790M] (Homo sapiens, UniProt P00533, DEL746-750/T790M); experiment: Phosphorylation activity inhibitory effect (in vitro) on mutant EGFR d746-750/T790M; assay type: biochemical
T3 construct: purchased Carna Biosciences, Inc
Protocol: as §1, §2, §3, §4

[6] = target: T4, EGFR [L858R] (Homo sapiens, UniProt P00533, L858R); experiment: Phosphorylation activity inhibitory effect (in vitro) on mutant EGFR L858R; assay type: biochemical
T4 construct: purchased Carna Biosciences, Inc
T4 sequence (P00533 25-1210 L858R): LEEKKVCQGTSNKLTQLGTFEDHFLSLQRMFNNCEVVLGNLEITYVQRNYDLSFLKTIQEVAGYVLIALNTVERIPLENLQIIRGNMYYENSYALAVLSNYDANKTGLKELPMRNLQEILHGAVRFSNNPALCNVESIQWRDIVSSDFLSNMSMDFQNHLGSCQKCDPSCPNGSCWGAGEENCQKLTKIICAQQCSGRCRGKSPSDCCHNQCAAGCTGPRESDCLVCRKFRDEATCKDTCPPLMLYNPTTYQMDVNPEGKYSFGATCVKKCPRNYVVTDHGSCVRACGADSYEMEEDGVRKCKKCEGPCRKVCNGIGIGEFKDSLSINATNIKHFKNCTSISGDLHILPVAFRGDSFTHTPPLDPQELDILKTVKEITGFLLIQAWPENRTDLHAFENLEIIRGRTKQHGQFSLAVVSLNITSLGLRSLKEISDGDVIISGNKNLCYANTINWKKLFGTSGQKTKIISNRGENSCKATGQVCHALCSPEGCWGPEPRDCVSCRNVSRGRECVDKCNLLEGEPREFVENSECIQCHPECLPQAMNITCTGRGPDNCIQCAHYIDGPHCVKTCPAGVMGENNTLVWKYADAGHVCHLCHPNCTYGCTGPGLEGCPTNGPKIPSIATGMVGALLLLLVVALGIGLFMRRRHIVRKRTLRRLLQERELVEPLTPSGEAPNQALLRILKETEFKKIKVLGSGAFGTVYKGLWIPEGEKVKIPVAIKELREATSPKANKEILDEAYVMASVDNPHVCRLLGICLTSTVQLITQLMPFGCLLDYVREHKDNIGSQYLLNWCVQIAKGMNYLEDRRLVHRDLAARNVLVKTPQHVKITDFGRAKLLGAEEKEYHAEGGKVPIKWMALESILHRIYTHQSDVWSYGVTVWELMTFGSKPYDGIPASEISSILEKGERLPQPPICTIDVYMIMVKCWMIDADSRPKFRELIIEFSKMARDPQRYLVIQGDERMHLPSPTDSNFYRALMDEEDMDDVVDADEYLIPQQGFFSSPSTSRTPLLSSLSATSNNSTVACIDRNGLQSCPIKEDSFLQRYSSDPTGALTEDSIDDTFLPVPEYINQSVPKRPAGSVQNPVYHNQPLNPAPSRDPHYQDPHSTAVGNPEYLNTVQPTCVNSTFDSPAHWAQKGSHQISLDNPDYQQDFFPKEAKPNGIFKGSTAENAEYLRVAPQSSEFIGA
Protocol: as §1, §2, §3, §4

[7] = target: T5, EGFR [T790M/L858R] (Homo sapiens, UniProt P00533, L858R/T790M); experiment: Phosphorylation activity inhibitory effect (in vitro) on mutant EGFR T790M/L858R; assay type: biochemical
T5 construct: purchased Carna Biosciences, Inc
Protocol: as §1, §2, §3, §4

[8] = target: T6, EGFR [D770_N771insNPG] (Homo sapiens, UniProt P00533, INS770NPG); experiment: Phosphorylation activity inhibitory effect (in vitro) on mutant EGFR D770_N771insNPG; assay type: biochemical
T6 construct: purchased Carna Biosciences, Inc
T6 sequence (P00533 with tags, fused parts or gaps INS770NPG limits assumed): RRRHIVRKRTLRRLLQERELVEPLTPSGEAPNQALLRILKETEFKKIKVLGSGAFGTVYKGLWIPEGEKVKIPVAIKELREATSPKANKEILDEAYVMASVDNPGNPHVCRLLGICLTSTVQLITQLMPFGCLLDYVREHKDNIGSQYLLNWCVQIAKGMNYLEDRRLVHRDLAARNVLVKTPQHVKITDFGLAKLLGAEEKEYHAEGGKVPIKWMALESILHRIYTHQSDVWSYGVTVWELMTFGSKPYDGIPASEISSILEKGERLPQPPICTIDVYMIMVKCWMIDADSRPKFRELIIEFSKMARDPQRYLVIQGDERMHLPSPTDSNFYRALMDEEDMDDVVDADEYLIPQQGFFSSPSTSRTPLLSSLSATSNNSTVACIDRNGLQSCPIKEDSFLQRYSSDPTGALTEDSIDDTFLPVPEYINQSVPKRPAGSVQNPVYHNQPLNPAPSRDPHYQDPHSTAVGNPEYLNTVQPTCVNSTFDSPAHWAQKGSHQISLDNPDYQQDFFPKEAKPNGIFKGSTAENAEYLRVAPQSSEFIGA
Protocol: as §1, §2, §3, §4

[9] = test system: Human stomach cancer-derived tumor cells 4-1ST
Protocol: Human stomach cancer-derived tumor cells 4-1ST were obtained as fragment tumor from the Central Institute for Experimental Animals. Tumor was removed approximately 1 month after subcutaneous transplantation and passage in a 6 week old male nude mouse (BALB/cAJc1-nu/nu, CLEA Japan, Inc.), and a fragment of approximately 2 mm square was prepared. A transplantation needle was filled with one fragment and subcutaneously inserted from around the right last rib of each nude mouse so as to enter the right back. The tumor was pushed out by pressing the inner syringe and thereby transplanted. For the measurement of the tumor size, electronic calipers were used. […] A tumor volume (TV) was calculated from this major axis and minor axis. A relative tumor volume change percentage (T/C) was calculated from the calculated tumor volume. TV and T/C were calculated according to the following equations:
(§5) Tumor Volume (TV)(mm^3)=(Major axis,mm)×(Minor axis,mm)×(Minor axis,mm)/2
(§6) Relative tumor volume change percentage (T/C)(%)=(Mean TV of the administration group)/(Mean TV of a control group)×100
(§7) For the measurement of the body weight, an animal electronic balance was used. A body weight change percentage on the n^th day (BWCn) from the body weight on 0th day (BW0) and the body weight on the n^th day (BWn) was calculated according to the following equation:
(§8) Body weight change percentage BWCn (%)=(BWn−BW0)/BW0×100
Nude mice having TV of 50 to 300 mm^3 were selected and assigned to groups each involving 6 animals by the equal number method [MiSTAT (ver. 2.1)] such that the means of TV were equal among the groups. […] An untreated group was used as a control.
(§9) The presence or absence of a combinatorial effect and toxicity was judged from the tumor sizes and the body weights on the grouping day (Day 0) and the judgement day (Day 15). During the administration period, the body weight was measured every day for calculation of the amount of the dosing solution.
An untreated group was used as a control.

[10] = test system: Human stomach cancer-derived tumor cells 4-1ST; settings: for BWC (%, Mean ± SE) / T/C (%) / TV (mm^3, mean ± SE): Day 15; for BWC (%, Mean ± SE) / T/C (%) / TV (mm^3, mean ± SE) / Number of Death / cCR (%) / pCR (%): Days 1-14, po; for cCR (%): clinical CR (TV=0); for pCR (%): pathological CR
Protocol: Tumor was removed approximately 1 month after subcutaneous transplantation and passage in a 6 week old male nude mouse (BALB/cAJc1-nu/nu, CLEA Japan, Inc.), and a fragment of approximately 2 mm square was prepared. A transplantation needle was filled with one fragment and subcutaneously inserted from around the right last rib of each nude mouse so as to enter the right back. The tumor was pushed out by pressing the inner syringe and thereby transplanted. For the measurement of the tumor size, electronic calipers were used. […] A tumor volume (TV) was calculated from this major axis and minor axis. A relative tumor volume change percentage (T/C) was calculated from the calculated tumor volume. TV and T/C were calculated according to the following equations:
as §5, §6, §7, §8
Nude mice having TV of 100 to 300 mm^3 were selected and assigned to groups each involving 6 animals by the equal number method [MiSTAT (ver. 2.0)] such that the means of TV were equal among the groups. […] An untreated group was used as a control.
as §9
When an individual of TV=0 was found, a complete response (hereinafter, CR) rate was also set as an evaluation item. For the judgement of CR, clinical CR (cCR) based on TV=0 and pathological CR (pCR) based on pathological test were used.
CR rate=(The number of CR individuals in a group found to have CR)/(Total number of individuals in the group found to have CR)×100

[11] = Day 15, Example 11 6.25 mg/kg/day, Days 1-14, po

Structure (SMILES): C=CC(=O)N1C[C@H](n2c(C#CC)c(C(=O)N[C@H](C)c3ccccc3)c3c(N)ncnc32)C[C@@H]1C [Example 2, 7-((3R,5S)-1-acryloyl-5-methylpyrrolidin-3-yl)-4-amino-N—((R)-1-phenylethyl)-6-(prop-1-yn-1-yl)-7H-pyrrolo[2,3-d]pyrimidine-5-carboxamide]
- body weight reduction of −20% or more [1]: not observed

Structure (SMILES): C=CC(=O)N1C[C@H](n2c(C#CC3CC3)c(C(=O)N[C@H](C)c3ccccc3)c3c(N)ncnc32)C[C@@H]1C [Example 11, 7-((3R,5S)-1-acryloyl-5-methylpyrrolidin-3-yl)-4-amino-6-(cyclopropylethynyl)-N—((R)-1-phenylethyl)-7H-pyrrolo[2,3-d]pyrimidine-5-carboxamide]
- IC50 [2]: 6.6 nM
- IC50 [3]: 0.47 nM
- IC50 [4]: 0.25 nM
- IC50 [5]: 6.8 nM
- IC50 [6]: 0.36 nM
- IC50 [7]: 6.6 nM
- IC50 [8]: 0.55 nM
- body weight reduction of −20% or more [1]: not observed
- BWC (%, Mean ± SE) [9, 11]: 4.0 ± 0.7%
- T/C (%) [9, 11]: 14.5%
- TV (mm^3, mean ± SE) [9, 11]: 233.6 ± 42.6 mm^3
- Number of Death ([9]; Example 11 6.25 mg/kg/day, Days 1-14, po): 0
- TV on Day 15 versus control group (Dunnett's test) ([9]; trastuzumab emtansine iv Day 1, Example 11 po Days 1-14): significantly lower TV
- BWC (%, Mean ± SE) ([10]; Example 11 6.25 mg/kg/day): 5.93 ± 0.25%
- T/C (%) ([10]; Example 11 6.25 mg/kg/day): 17.3%
- TV (mm^3, mean ± SE) ([10]; Example 11 6.25 mg/kg/day): 295.9 ± 67.3 mm^3
- BWC (%, Mean ± SE) ([10]; Example 11 12.5 mg/kg/day): 4.77 ± 1.14%
- T/C (%) ([10]; Example 11 12.5 mg/kg/day): 1.9%
- TV (mm^3, mean ± SE) ([10]; Example 11 12.5 mg/kg/day): 31.9 ± 10.7 mm^3
- Number of Death ([10]; Example 11 6.25 mg/kg/day): 0
- Number of Death ([10]; Example 11 12.5 mg/kg/day): 0
- TV on Day 15 versus control group (Dunnett's test) ([10]; T-mab and P-mab iv Day 1, Example 11 po Days 1-14): significantly lower TV
- cCR (%) ([10]; Example 11 6.25 mg/kg/day): 0%
- cCR (%) ([10]; Example 11 12.5 mg/kg/day): 33%
- pCR (%) ([10]; Example 11 6.25 mg/kg/day): 0%
- pCR (%) ([10]; Example 11 12.5 mg/kg/day): 33%
